32 molecules from patent publication US20140058103A1, “Inhibitors of PI3K-Delta and Methods of Their Use and Manufacture” (Exelixis, Inc., priority 2010, published 2014) can be followed below.

Sequence of PI3K delta (O00329 whole entry): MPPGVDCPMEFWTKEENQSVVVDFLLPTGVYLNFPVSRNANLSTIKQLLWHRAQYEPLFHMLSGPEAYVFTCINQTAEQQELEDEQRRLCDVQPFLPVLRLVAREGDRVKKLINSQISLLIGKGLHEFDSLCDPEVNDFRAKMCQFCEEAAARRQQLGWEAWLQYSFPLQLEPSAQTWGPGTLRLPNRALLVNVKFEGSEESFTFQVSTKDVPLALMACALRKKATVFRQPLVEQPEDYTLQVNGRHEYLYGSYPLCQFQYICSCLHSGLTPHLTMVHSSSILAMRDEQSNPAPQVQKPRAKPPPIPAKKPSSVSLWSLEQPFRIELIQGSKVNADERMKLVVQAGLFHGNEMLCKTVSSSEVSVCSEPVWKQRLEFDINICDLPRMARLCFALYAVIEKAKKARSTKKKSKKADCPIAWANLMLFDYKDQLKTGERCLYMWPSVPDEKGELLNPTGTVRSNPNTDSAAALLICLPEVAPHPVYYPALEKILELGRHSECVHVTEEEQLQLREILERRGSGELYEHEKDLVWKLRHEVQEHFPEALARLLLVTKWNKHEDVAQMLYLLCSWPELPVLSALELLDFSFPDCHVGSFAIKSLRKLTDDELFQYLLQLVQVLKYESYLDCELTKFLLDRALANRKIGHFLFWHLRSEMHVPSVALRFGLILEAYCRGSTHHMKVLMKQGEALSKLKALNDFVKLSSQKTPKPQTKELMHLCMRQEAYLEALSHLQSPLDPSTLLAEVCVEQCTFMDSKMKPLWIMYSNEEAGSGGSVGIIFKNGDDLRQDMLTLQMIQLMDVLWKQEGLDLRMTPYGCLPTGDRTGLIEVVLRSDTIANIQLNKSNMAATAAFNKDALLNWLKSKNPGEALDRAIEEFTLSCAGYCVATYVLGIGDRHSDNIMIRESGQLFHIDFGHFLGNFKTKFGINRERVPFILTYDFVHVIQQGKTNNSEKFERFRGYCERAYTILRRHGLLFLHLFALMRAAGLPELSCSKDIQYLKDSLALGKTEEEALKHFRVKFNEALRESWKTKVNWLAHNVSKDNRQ
Sequence of PI3K delta (P27986 whole entry partner): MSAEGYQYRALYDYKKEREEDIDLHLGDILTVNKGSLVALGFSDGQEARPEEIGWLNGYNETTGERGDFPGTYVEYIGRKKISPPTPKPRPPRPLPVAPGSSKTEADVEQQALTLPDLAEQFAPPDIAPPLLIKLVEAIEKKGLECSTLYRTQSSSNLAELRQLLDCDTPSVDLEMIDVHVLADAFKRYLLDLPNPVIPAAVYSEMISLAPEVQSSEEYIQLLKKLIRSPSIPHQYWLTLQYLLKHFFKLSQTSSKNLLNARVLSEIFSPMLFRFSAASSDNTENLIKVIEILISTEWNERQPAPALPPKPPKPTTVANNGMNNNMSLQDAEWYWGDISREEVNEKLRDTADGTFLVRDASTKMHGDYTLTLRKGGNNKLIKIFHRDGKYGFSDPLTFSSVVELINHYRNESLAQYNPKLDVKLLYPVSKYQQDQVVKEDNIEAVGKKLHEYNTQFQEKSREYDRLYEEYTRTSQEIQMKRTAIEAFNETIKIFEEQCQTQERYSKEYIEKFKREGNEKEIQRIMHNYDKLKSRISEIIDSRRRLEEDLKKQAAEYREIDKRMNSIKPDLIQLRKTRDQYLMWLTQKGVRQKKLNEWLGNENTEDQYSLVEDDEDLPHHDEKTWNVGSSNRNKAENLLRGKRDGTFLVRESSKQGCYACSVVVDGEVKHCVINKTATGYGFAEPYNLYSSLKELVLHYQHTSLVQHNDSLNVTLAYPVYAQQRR

The experiment has as its target PI3K delta (Homo sapiens, UniProt O00329). Put plainly: Luciferase-coupled chemiluminescence kinase assay (ATP consumption, KinaseGlo). The experiment is classed as biochemical. The gist of the method:
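ATP consumption measured by KinaseGlo luciferase chemiluminescence after a 2 h reaction at ambient temperature, with ATP at or below the kinase KM. Ten inhibitor concentrations per curve; IC50 from four-parameter nonlinear regression.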
A general note: Kinase-Glo reads ATP consumption through a luciferase reaction.
Regarding `CCn1c(-c2cnn(C)c2)nc2c(N3CCC(n4c(=O)[nH]c5ccccc54)CC3)ncnc21` [Compound 243, 1-{1-[9-ethyl-8-(1-methyl-1H-pyrazol-4-yl)-9H-purin-6-yl]piperidin-4-yl}-1,3-dihydro-2H-benzimidazol-2-one], the IC50 (in general, the point on the concentration scale where inhibition reaches its midpoint) is less than 50 nM. Consider `Cn1c(C(=O)NC2CCOCC2)nc2c(N3CCC4(CC3)C(=O)Nc3ccccc34)ncnc21` [Compound 86, 9-methyl-6-(2-oxo-1,2-dihydro-1′H-spiro[indole-3,4′-piperidin]-1′-yl)-N-(tetrahydro-2H-pyran-4-yl)-9H-purine-8-carboxamide], for which the concentration for half-maximal inhibition (IC50) was in the range of 50 to 250 nM. The same measure for `Cc1ccc2[nH]c(=O)n(C3CCN(c4ncnc5c4nc(C(=O)NCC4CC4)n5C)CC3)c2c1` [Compound 206, N-(cyclopropylmethyl)-9-methyl-6-[4-(6-methyl-2-oxo-2,3-dihydro-1H-benzimidazol-1-yl)piperidin-1-yl]-9H-purine-8-carboxamide]: 250 to 500 nM. `Cn1c(C(=O)NCC2CCCCC2)nc2c(N3CCC4(CC3)C(=O)Nc3ccccc34)ncnc21` [Compound 88, N-(cyclohexylmethyl)-9-methyl-6-(2-oxo-1,2-dihydro-1′H-spiro[indole-3,4′-piperidin]-1′-yl)-9H-purine-8-carboxamide] returned an IC50 of 500 to 1500 nM. The same measure for `Cn1c(C(=O)NCC2CCCOC2)nc2c(N3CCC(n4c(=O)[nH]c5ccccc54)CC3)ncnc21` (centres unmarked) [Compound 11, 9-methyl-6-[4-(2-oxo-2,3-dihydro-1H-benzimidazol-1-yl)piperidin-1-yl]-N-(tetrahydro-2H-pyran-3-ylmethyl)-9H-purine-8-carboxamide]: 250 to 500 nM; for `CCc1nc2c(N3CCC(n4c(=O)[nH]c5ccccc54)CC3)ncnc2n1C` [Compound 92, 1-[1-(8-ethyl-9-methyl-9H-purin-6-yl)piperidin-4-yl]-1,3-dihydro-2H-benzimidazol-2-one]: 500 to 1500 nM; for `CCn1c(C(=O)NCC(C)(C)O)nc2c(N3CCC4(CC3)C(=O)Nc3ccccc34)ncnc21` [Compound 224, 9-ethyl-N-(2-hydroxy-2-methylpropyl)-6-(2-oxo-1,2-dihydro-1′H-spiro[indole-3,4′-piperidin]-1′-yl)-9H-purine-8-carboxamide]: less than 50 nM. `CN(CCC#N)C(=O)c1nc2c(N3CCC4(CC3)C(=O)Nc3ccccc34)ncnc2n1C` [Compound 39, N-(2-cyanoethyl)-N,9-dimethyl-6-(2-oxo-1,2-dihydro-1′H-spiro[indole-3,4′-piperidin]-1′-yl)-9H-purine-8-carboxamide] displayed a 50% inhibitory concentration (IC50) of 500 to 1500 nM. With `C/C=C/c1nc2c(N3CCC(n4c(=O)[nH]c5ccccc54)CC3)ncnc2n1C` [Compound 144, 1-(1-{9-methyl-8-[(1E)-prop-1-en-1-yl]-9H-purin-6-yl}piperidin-4-yl)-1,3-dihydro-2H-benzimidazol-2-one], the IC50 lay within 500 to 1500 nM. The same measure for `C#CCNC(=O)c1nc2c(N3CCC(n4c(=O)[nH]c5ccccc54)CC3)ncnc2n1C` [Compound 139, 9-methyl-6-[4-(2-oxo-2,3-dihydro-1H-benzimidazol-1-yl)piperidin-1-yl]-N-prop-2-yn-1-yl-9H-purine-8-carboxamide]: 50 to 250 nM; for `Cn1c(C(=O)NCC2CCOCC2)nc2c(N3CCC(n4c(=O)[nH]c5ccccc54)CC3)ncnc21` [Compound 5, 9-methyl-6-[4-(2-oxo-2,3-dihydro-1H-benzimidazol-1-yl)piperidin-1-yl]-N-(tetrahydro-2H-pyran-4-ylmethyl)-9H-purine-8-carboxamide]: less than 50 nM. As for `Cn1cc(-c2nc3c(N4CCN(S(=O)(=O)c5cccnc5Cl)CC4)ncnc3n2C)cn1` [Compound 390, 6-{4-[(2-chloropyridin-3-yl)sulfonyl]piperazin-1-yl}-9-methyl-8-(1-methyl-1H-pyrazol-4-yl)-9H-purine], the IC50 lay in the range of 500 to 1500 nM. Turning to `Cn1c(C(=O)NCc2cccs2)nc2c(N3CCC4(CC3)C(=O)Nc3ccccc34)ncnc21` [Compound 20, 9-methyl-6-(2-oxo-1,2-dihydro-1′H-spiro[indole-3,4′-piperidin]-1′-yl)-N-(2-thienylmethyl)-9H-purine-8-carboxamide], the IC50 lay in the range of 50 to 250 nM. For the molecule `CCn1c(-c2cncnc2)nc2c(N3CCC4(CC3)C(=O)Nc3ccccc34)ncnc21` [Compound 292, 1′-(9-ethyl-8-pyrimidin-5-yl-9H-purin-6-yl)spiro[indole-3,4′-piperidin]-2(1H)-one], the half-maximal inhibitory concentration (IC50) is less than 50 nM. `Cn1c(-c2ccc(C(F)(F)F)nc2)nc2c(N3CCC(n4c(=O)[nH]c5ncccc54)CC3)ncnc21` [Compound 315, 1-(1-{9-methyl-8-[6-(trifluoromethyl)pyridin-3-yl]-9H-purin-6-yl}piperidin-4-yl)-1,3-dihydro-2H-imidazo[4,5-b]pyridin-2-one] gave a half-inhibitory concentration (IC50) of less than 50 nM. The same measure for `CCn1c(C(=O)NCC2CCC2)nc2c(N3CCC4(CC3)C(=O)Nc3ccccc34)ncnc21` [Compound 212, N-(cyclobutylmethyl)-9-ethyl-6-(2-oxo-1,2-dihydro-1′H-spiro[indole-3,4′-piperidin]-1′-yl)-9H-purine-8-carboxamide]: less than 50 nM; for `Cn1cc(-c2nc3c(N4CCN(c5ccc(OCC6CC6)cc5)CC4)ncnc3n2C)cn1` [Compound 360]: 500 to 1500 nM. `CCn1cc(-c2nc3c(N4CCC(n5c(=O)[nH]c6c(F)cccc65)CC4)ncnc3n2C)cn1` [Compound 344, 1-{1-[8-(1-ethyl-1H-pyrazol-4-yl)-9-methyl-9H-purin-6-yl]piperidin-4-yl}-4-fluoro-1,3-dihydro-2H-benzimidazol-2-one] had an IC50 of less than 50 nM. Molecule `Cn1c(C(=O)NCc2ccco2)nc2c(N3CCC4(CC3)C(=O)Nc3ccccc34)ncnc21` [Compound 17, N-(furan-2-ylmethyl)-9-methyl-6-(2-oxo-1,2-dihydro-1′H-spiro[indole-3,4′-piperidin]-1′-yl)-9H-purine-8-carboxamide] had a half-maximal inhibitory concentration (IC50) of 50 to 250 nM.

Turning to `Cn1c(C(=O)NCc2ccncc2)nc2c(N3CCC4(CC3)C(=O)Nc3ccccc34)ncnc21` [Compound 22, 9-methyl-6-(2-oxo-1,2-dihydro-1′H-spiro[indole-3,4′-piperidin]-1′-yl)-N-(pyridin-4-ylmethyl)-9H-purine-8-carboxamide], the half-maximal inhibitory concentration (IC50) was 50 to 250 nM. The same measure for `CCn1c(C(=O)N2CCC(F)(F)C2)nc2c(N3CCC4(CC3)C(=O)Nc3ccccc34)ncnc21` [Compound 218, 1′-{8-[(3,3-difluoropyrrolidin-1-yl)carbonyl]-9-ethyl-9H-purin-6-yl}spiro[indole-3,4′-piperidin]-2(1H)-one]: less than 50 nM; for `Cn1c(C(=O)NCCCCO)nc2c(N3CCC4(CC3)C(=O)Nc3ccccc34)ncnc21` [Compound 13, N-(4-hydroxybutyl)-9-methyl-6-(2-oxo-1,2-dihydro-1′H-spiro[indole-3,4′-piperidin]-1′-yl)-9H-purine-8-carboxamide]: 50 to 250 nM; for `Cn1cc(-c2nc3c(N4CC[C@@H](n5c(=O)[nH]c6ccccc65)[C@H](CO)C4)ncnc3n2C)cn1` [Compound 338, 1-{(3R,4R)-3-(hydroxymethyl)-1-[9-methyl-8-(1-methyl-1H-pyrazol-4-yl)-9H-purin-6-yl]piperidin-4-yl}-1,3-dihydro-2H-benzimidazol-2-one]: 50 to 250 nM. Molecule `Cn1c(C(=O)NCCO)nc2c(N3CCC(n4c(=O)[nH]c5ccccc54)CC3)ncnc21` [Compound 55, N-(2-hydroxyethyl)-9-methyl-6-[4-(2-oxo-2,3-dihydro-1H-benzimidazol-1-yl)piperidin-1-yl]-9H-purine-8-carboxamide] had a half-maximal inhibitory concentration (IC50) of 50 to 250 nM. For the molecule `Cn1c(C(=O)NCC2CCC2)nc2c(N3CCC4(CC3)C(=O)Nc3ccccc34)ncnc21` [Compound 89, N-(cyclobutylmethyl)-9-methyl-6-(2-oxo-1,2-dihydro-1′H-spiro[indole-3,4′-piperidin]-1′-yl)-9H-purine-8-carboxamide], the half-maximal inhibitory concentration (IC50) lay within 50 to 250 nM. The figure for `Cn1c(C(=O)NCc2cccc(F)c2)nc2c(N3CCC(n4c(=O)[nH]c5ccccc54)CC3)ncnc21` [Compound 58, N-[(3-fluorophenyl)methyl]-9-methyl-6-[4-(2-oxo-2,3-dihydro-1H-benzimidazol-1-yl)piperidin-1-yl]-9H-purine-8-carboxamide] is 50 to 250 nM. The figure for `Cn1c(C(=O)NCc2ccc(F)cc2F)nc2c(N3CCC4(CC3)C(=O)Nc3ccccc34)ncnc21` [Compound 33, N-[(2,4-difluorophenyl)methyl]-9-methyl-6-(2-oxo-1,2-dihydro-1′H-spiro[indole-3,4′-piperidin]-1′-yl)-9H-purine-8-carboxamide] is 500 to 1500 nM; for `Cc1[nH]ncc1-c1nc2c(N3CCC(n4c(=O)[nH]c5ncccc54)CC3)ncnc2n1C` [Compound 394, 1-{1-[9-methyl-8-(5-methyl-1H-pyrazol-4-yl)-9H-purin-6-yl]piperidin-4-yl}-1,3-dihydro-2H-imidazo[4,5-b]pyridin-2-one] it is less than 50 nM. The molecule `Cn1c(C(=O)N[C@H]2CC[C@H](O)CC2)nc2c(N3CCC(n4c(=O)[nH]c5ncccc54)CC3)ncnc21` [Compound 329, N-(trans-4-hydroxycyclohexyl)-9-methyl-6-[4-(2-oxo-2,3-dihydro-1H-imidazo[4,5-b]pyridin-1-yl)piperidin-1-yl]-9H-purine-8-carboxamide] displayed a half-inhibitory concentration (IC50) of less than 50 nM. On to `Cn1c(-c2cccnn2)nc2c(N3CCC(n4c(=O)[nH]c5ncccc54)CC3)ncnc21` [Compound 335, 1-[1-(9-methyl-8-pyridazin-3-yl-9H-purin-6-yl)piperidin-4-yl]-1,3-dihydro-2H-imidazo[4,5-b]pyridin-2-one], for which the IC50 is 50 to 250 nM. In turn, `Cn1c(C(=O)NCC2CC2)nc2c(N3CCC(n4c(C(F)(F)F)nc5ccccc54)CC3)ncnc21` [Compound 101, N-(cyclopropylmethyl)-9-methyl-6-{4-[2-(trifluoromethyl)-1H-benzimidazol-1-yl]piperidin-1-yl}-9H-purine-8-carboxamide] came in with an IC50 of 250 to 500 nM.

The molecule `CCCCCCNC(=O)c1nc2c(N3CCC4(CC3)C(=O)Nc3ccccc34)ncnc2n1C` [Compound 37, N-hexyl-9-methyl-6-(2-oxo-1,2-dihydro-1′H-spiro[indole-3,4′-piperidin]-1′-yl)-9H-purine-8-carboxamide] displayed an IC50 of 500 to 1500 nM.
